Experimental data taken from PMC11375437, “Selective labelling of GBA2 in cells with fluorescent β-D-arabinofuranosyl cyclitol aziridines” (Chemical Science, 2024).

Biological target: T1, GBA1 (Homo sapiens, UniProt P04062)
T1 construct: endogenous in cells; host or cells: wild-type HEK293T
T1 sequence (P04062 40-536): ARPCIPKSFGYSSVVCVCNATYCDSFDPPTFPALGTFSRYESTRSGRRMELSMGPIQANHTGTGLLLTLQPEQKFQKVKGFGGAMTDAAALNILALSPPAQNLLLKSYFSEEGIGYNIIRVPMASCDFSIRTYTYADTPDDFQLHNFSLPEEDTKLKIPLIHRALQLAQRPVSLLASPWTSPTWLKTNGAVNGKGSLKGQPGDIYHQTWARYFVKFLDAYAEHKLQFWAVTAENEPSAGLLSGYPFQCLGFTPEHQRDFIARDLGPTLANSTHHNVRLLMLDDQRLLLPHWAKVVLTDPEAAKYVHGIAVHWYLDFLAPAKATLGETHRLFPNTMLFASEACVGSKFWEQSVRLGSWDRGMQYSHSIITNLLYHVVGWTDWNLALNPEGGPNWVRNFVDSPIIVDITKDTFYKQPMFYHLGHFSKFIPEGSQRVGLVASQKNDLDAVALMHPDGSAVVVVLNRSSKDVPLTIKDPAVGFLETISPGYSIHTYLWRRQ
Test: In situ labelling of wild-type HEK293T cells, GBA1
Format: cell-based
Details: wild-type HEK293T intact cells; for GBA1 labelling in situ: 500 nM, 2.5 h
Experimental: Importantly, the GBA2 selectivity of β-D-Araf ABPs 3–5 was maintained during in situ labelling of wild-type HEK293T cells (ESI Fig. S9 ^†). […] Even after 24 h incubation, similar results were obtained: ABP 4 selectively labelled GBA2 at 10 nM, with only slight concomitant GBA1 labelling at concentrations higher than 100 nM (ESI Fig. S10 ^†). Selective GBA2 labelling by ABP 3 and 4 finally was also observed in human retinal pigment epithelial-1 cells (Fig. 5C).
Figure S9. Fluorescent gel images of in situ labelling of wild-type HEK293T cells by β-D-Araf aziridine ABPs 3-5.
β-D-Araf ABPs were firstly incubated with intact wild-type HEK293T cells for 1 or 2.5 h (1st incubation) and then cells were harvested. Lysis buffers containing different competitors (1 µM ABP or cyclophellitol inhibitor (CP, 1 µM for 150 nM set, 2 µM for 500 nM set)) was added to the harvested cells, cells were lysed, and lysate was incubated on ice for 30 min and additional 30 min at 37 °C (2nd incubation). Labelling of residual β-glucosidases was performed using ABPs 7 (for 3), 8 (for 4), or 9 (for 5) at 500 nM.
Figure S10. Fluorescent gel images of A) intact HEK293T wild-type cells labeled by β-D-Araf aziridine ABPs 3-5. […]
2.13 In situ intact cells labelling and inhibition assays
Confluent HEK293T cells expressing human endogenous GBA1 and GBA2/GBA3 OE, wild-type HEK293T cells or wild-type human retinal pigment epithelial-1 (RPE-1) cells were cultured in 12-well plates for duplicates or triplicates with (or without) compounds (3-5) for the described incubation times using the conditions as described for the cell culture. The cells were harvested as described in the cell lysis method. After determination of the protein concentration by BCA assay, the lysates were adjusted to 10 μL by addition of potassium phosphate buffer in order to normalize the amount of protein loaded (to 10-25 μg total protein per measurement), and subjected to the ABPP as […]
2.14 In situ visualization of GBA2 for confocal microscopy
HEK293T WT, GBA2 overexpression (GBA1 endogenous and GBA2 OE) and GBA1/GBA2 knockout (KO) GBA2 overexpression (GBA1/2 KO GBA2 OE) cells were cultured in DMEM High Glucose (Capricon Scientific) supplemented with 10% fetal calf serum, 1% (v/v) GlutaMax and 0.1% (w/v) penicillin/streptomycin.2,6 Cells were grown to approximately 75% confluence on Ø15 mm glass coverslips coated with 0.1 mg/ml poly-L-Lysine.
Samples were pretreated for 16 h with 100 nM of a GBA1 inhibitor (218, 0.5% DMSO), 500 nM of a GBA1 and GBA2 inhibitor (229, 0.5% DMSO) or with 0.5% DMSO alone. GBA2 was subsequently incubated by the addition of 50 nM ABP 4 (BODIPY-Red) to cells for 2 h at 37 °C with 5% CO2.
Unbound probe was washed away with PBS and cells were fixed with 4% paraformaldehyde (Alfa Aesar)/PBS for 15 min at RT. […]

SMILES	GBA1 labelling in situ	Concentrations giving slight concomitant GBA1 labelling in situ (24 h incubation)
CC1=CC(C)=[N+]2C1=C(CCCCc1cn(CCCCCCCCN3[C@@H]4[C@H](CO)[C@@H](O)[C@H](O)[C@@H]43)nn1)c1c(C)cc(C)n1[B-]2(F)F (stereo partly shown) [ABP 3]	did not visibly label GBA1	–
CN1/C(=C/C=C/C=C/C2=[N+](CCCCCC(=O)NCc3cn(CCCCCCCCN4[C@@H]5[C@H](CO)[C@@H](O)[C@H](O)[C@@H]54)nn3)c3ccccc3C2(C)C)C(C)(C)c2ccccc21 (stereo partly shown) [ABP 5]	GBA1 labelling only occurred when using a high concentration (500 nM) and longer incubation time (2.5 h)	–
COc1ccc(C2=[N+]3C(=C(CCCCc4cn(CCCCCCCCN5[C@@H]6[C@H](CO)[C@@H](O)[C@H](O)[C@@H]65)nn4)c4ccc(-c5ccc(OC)cc5)n4[B-]3(F)F)C=C2)cc1 (stereo partly shown) [ABP 4]	did not visibly label GBA1	higher than 100 nM
